The values below come from article PMC11270968, “Antiplasmodial potential of isolated xanthones from Mesua ferrea Linn. roots: an in vitro and in silico molecular docking and pharmacokinetics study” (BMC Complementary Medicine and Therapies, 2024).

Converted amounts (≈) assume the structure as drawn. “Also recorded” adds a separate entry of the source. Read-outs that look alike come from different tables or passages of the source. Where only a bound is given, the exact number is not on record here.

Data set [1] concerns P. falciparum FcB1/Colombia. The arrangement: method as in PMID 15474559. As to conditions: chloroquine-resistant P. falciparum FcB1/Colombia; cited from earlier work.
Data set [2] relates to P. falciparum D6. As to conditions: cited from earlier work.
Data set [3] deals with heme polymerization. Further details: method as in PMID 9199506. Particulars: cited from earlier work.
For data set [4], the system named is P. falciparum K1 strain. Briefly: in vitro antiplasmodial activity, parasite lactate dehydrogenase (pLDH) assay. Format: cell-based, Plasmodium falciparum. As to conditions: for IC50: Plasmodium falciparum, read-out: IC50 ± SD P. falciparum K1; for antiplasmodial activity classification of pure compounds: P. falciparum K1, class by IC50; for Selectivity index (SI): CC50 Vero cells / IC50 P. falciparum K1.

For data set [5], the system named is PfLDH. Particulars: cited from earlier work.
Data set [6] is described as follows: in vitro cytotoxicity, MTT assay. Particulars: African green monkey, pure compounds and doxorubicin, 48 h, mean ± SD of three determinations; for CC50 at 48 h: Vero cells. Format: cell-based. Here is the method:
(§1) The purpose of this study was to determine the cytotoxicity of crude extracts and pure compounds isolated from M. ferrea roots on Vero cells. The MTT assay was performed according to an established protocol. Briefly, Vero cells were cultured in Dulbecco’s Modified Eagle Medium (Gibco, USA) supplemented with 10% fetal bovine serum (FBS) (Sigma-Aldrich, New Delhi, India). Vero cell suspensions were seeded onto 96-well culture plates at a density of 1 × 10^4 cells per well. The seeded culture plates were incubated at 37 °C in a 5% CO2 atmosphere for 24 h to facilitate cell attachment. Subsequently, the cultured cells were exposed to the test extracts and pure compounds in triplicate for each concentration. Doxorubicin (Sigma-Aldrich, India) was used as a positive control, whereas DMSO served as a negative control. All extracts and pure compounds were dissolved in DMSO and added to the medium at a final concentration of 0.5% DMSO. Plates containing the test samples were incubated at 37 °C in a 5% CO2 atmosphere for 48 h. Following incubation, the cell culture supernatant was discarded, and 50 µL of MTT solution (5 mg/mL) (Thermo Fisher Scientific, Oregon, USA) was added to each well. The test plates were then incubated at 37 °C in a 5% CO2 atmosphere for 2 h. Subsequently, the supernatant was discarded, and 100 µL/well of DMSO was added to induce cell lysis and dissolve the formazan crystals. To estimate the reactions, absorbance was measured at 560 nm in a microplate reader, and the background absorbance at 670 nm was subtracted.
(In general: Tetrazolium assays rely on reduction of a dye to a coloured formazan, in cell work by metabolically active cells.)

The test system of data set [7] is Vero cells. Briefly: in vitro cytotoxicity, MTT assay. As to conditions: Vero cells, toxic when CC50 < 100 µM. Format: cell-based. Here is the method:
as §1

Data set [8] deals with P. falciparum 3D7. The arrangement: method as in PMID 37029625. As to conditions: chloroquine-sensitive P. falciparum 3D7; read-out: IC50 antiplasmodial activity; cited from earlier work.
[9] abbreviates: K1, pure compounds and reference drugs, 72 h, mean ± SD of three determinations.
[10] abbreviates: ratio of IC50 against P. falciparum K1.

As for `O=c1c2cccc(O)c2oc2cc(O)cc(O)c12` [1,3,5-trihydroxyxanthone], the IC50 antiplasmodial activity in data set [1] is 24.7 µg/mL (≈ 101 µM). For the same compound, the IC50 (as a rule, the concentration needed to halve the response being measured) in data set [2] (P. falciparum D6, read-out: IC50 antiplasmodial activity) was over 60 µM.
On to `O=c1c2ccc(O)c(O)c2oc2c(O)c(O)c(O)cc12` [2,3,4,5,6-pentahydroxyxanthone], for which the 50% inhibitory concentration (IC50) is 1.2 µM in data set [3] (read-out: IC50 in vitro heme polymerization) and 0.4 µM in data set [2] (chloroquine-sensitive P. falciparum D6, read-out: IC50 in vitro antiplasmodial activity).
As to `COc1cc2c(=O)c3ccc(OC)c(OC)c3oc2c(OC)c1OC` [2,3,4,5,6-pentamethoxyxanthone], in data set [3], the heme polymerization inhibition result is reported as “no in vitro antiplasmodial activity or heme polymerization”. Besides, the “in vitro antiplasmodial activity” value in data set [2] (same study as pentahydroxyxanthone) is recorded as “no in vitro antiplasmodial activity”.
Regarding `C[C@H]1[C@H](OC(=O)CCC(=O)O)O[C@@H]2O[C@@]3(C)CC[C@H]4[C@H](C)CC[C@@H]1[C@@]24OO3` [Artesunate, artesunate, reference compound], in data set [4] (setting [9]), the IC50 was found to be 0.003 µM.
For the compound `CCN(CC)CCCC(C)Nc1ccnc2cc(Cl)ccc12` (centres unmarked) [Chloroquine, chloroquine, reference compound], the IC50 in data set [4] (K1, 72 h) was 0.32 µM. For the same compound, in data set [5], the PfLDH inhibition entry is “weak inhibitor”.
Turning to `COc1ccc2oc3cccc(O)c3c(=O)c2c1` [Compound 1, 1-hydroxy-7-methoxyxanthone], in data set [4], the “antiplasmodial activity classification of pure compounds” value (from here on “antiplasmodial activity classification”) is “inactive”. Besides, the half-inhibitory concentration (IC50) in data set [4] (setting [9]) is 346 ± 3.51 µM. Further, the CC50 (as a rule, the concentration giving 50% cytotoxicity) at 48 h in data set [6] is 195.8 ± 1.68 µM. Besides, the “cytotoxicity classification of pure compounds” value (shortened to “cytotoxicity classification”) in data set [7] was “non-toxic”.
`COc1cccc2c(=O)c3c(O)cccc3oc12` [Compound 2, 1-hydroxy-5-methoxyxanthone]: the “antiplasmodial activity classification” value in data set [4] is “low (low activity (IC50 100−200 µM))”. Also, in data set [4] (setting [9]), the half-maximal inhibitory concentration (IC50) was 164 ± 1.71 µM. For the same compound, in data set [6], the 50% cytotoxic concentration (CC50) at 48 h came out at 62 ± 1.18 µM. Besides, in data set [7], the “cytotoxicity classification” value is recorded as “toxic (pure compounds are considered toxic to cells when the CC50 value is less than 100 µM)”.
Consider `O=c1c2ccc(O)cc2oc2cccc(O)c12` [Compound 3, 1,6-dihydroxyxanthone], for which the “antiplasmodial activity classification” value in data set [4] is “inactive”. Moreover, in data set [4] (setting [9]), the IC50 was 226.1 ± 1.32 µM. Further, the CC50 in data set [6] (read-out: CC50 ± SD Vero cells) came to 182.8 ± 1.62 µM. In addition, the “cytotoxicity classification” value in data set [7] is “non-toxic”.
With `O=c1c2cccc(O)c2oc2cccc(O)c12` [Compound 4, 1,5-dihydroxyxanthone], in data set [4], the “Selectivity index (SI)” value came out at 3.89 and the “antiplasmodial activity classification” value is given as “low (low activity (IC50 100−200 µM))”. Also, in data set [4] (setting [9]), the IC50 came to 107 ± 4.41 µM. This compound also returned a 50% cytotoxic concentration (CC50) at 48 h in data set [6] of 416.7 ± 1.98 µM. Besides, the “cytotoxicity classification” value in data set [7] is reported as “non-toxic”.
Turning to `CC1(C)C=Cc2cc3c(=O)c4c(O)cccc4oc3c(O)c2O1` [Compound 5, rheediachromenoxanthone], the “antiplasmodial activity classification” value in data set [4] is listed as “good (good activity (IC50 1−20 µM))”. Also, the IC50 in data set [4] (setting [9]) was 19.9 ± 0.72 µM. For the same compound, in data set [4] (setting [10]), the “fold less potent than artesunate” value is given as ~6,643.3 fold, the “fold less potent than chloroquine” value is “approximately 62.3 fold” and the “times more potent than 2,5-dihydroxy-1-methoxyxanthone (7)” value is on record as “approximately 2.3 times”. In data set [6], it took 112 ± 1.54 µM to reach half-maximal cytotoxicity (CC50 at 48 h). Moreover, the “cytotoxicity classification” value in data set [7] is “no toxicity; also recorded: non-toxic”. The “cytotoxicity classification” value in data set [7] (listed as Rheediachromenoxanthone) is “non-toxicity”.
As to `COc1cc(O)c2c(=O)c3cccc(O)c3oc2c1` [Compound 6, 1,5-dihydroxy-3-methoxyxanthone], the “antiplasmodial activity classification” value in data set [4] is listed as “low (low activity (IC50 100−200 µM))”. Further, the IC50 in data set [4] (setting [9]) came to 198 ± 2.43 µM. In data set [6], this compound yielded a half-maximal cytotoxic concentration (CC50) at 48 h of 210.2 ± 1.74 µM. In addition, the “cytotoxicity classification” value in data set [7] was “non-toxic”.
For `COc1c(O)ccc2oc3c(O)cccc3c(=O)c12` [Compound 7, 2,5-dihydroxy-1-methoxyxanthone], in data set [4], the “Selectivity index (SI)” value turned out to be 12.70 and the “antiplasmodial activity classification” value was “moderate (moderate activity (IC50 20−100 µM))”. Further, in data set [4] (setting [9]), the half-inhibitory concentration (IC50) is 46.3 ± 1.65 µM. Further, it took 587.9 ± 2.18 µM to reach half-maximal cytotoxicity in data set [6] (CC50 at 48 h). The “cytotoxicity classification” value in data set [7] is recorded as “non-toxic”.
`COc1cccc2c1C(=O)c1c(O)c3c(c(O)c1C2=O)C[C@@](O)(C(=O)CO)C[C@@H]3O[C@H]1C[C@H](N)[C@H](O)[C@H](C)O1` [Doxorubicin, reference compound]: in data set [6], the CC50 at 48 h was determined as 3.35 ± 0.28 µM.
In the case of `C=CC(C)(C)c1c2c(c(O)c3c(=O)c4cccc(O)c4oc13)C=CC(C)(C)O2` [caloxanthone C], the IC50 antiplasmodial activity in data set [1] was 1.3 µg/mL (≈ 3.44 µM).
With `CC1(C)C=Cc2c(cc(O)c3c(=O)c4ccc(O)c(O)c4oc23)O1` [isojacareubin], the IC50 in data set [8] was 11.5 µM.
Regarding `C=CC(C)(C)c1c2c(c(O)c3c(=O)c4ccc(O)c(O)c4oc13)C=CC(C)(C)O2` [macluraxanthone], in data set [8], the IC50 is 4.28 µM.
